Assay results from ChEMBL document CHEMBL1201862, “PubChem BioAssay data set” (2004).
Values belong to the compound of their own block, whether it stands above or below them. Active and inactive are the calls of the source.

Legend:
Cytochrome P450 3A4 = Cytochrome P450 3A4 (Homo sapiens, UniProt P08684);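 also: CYP3A4 tested as one member of a cytochrome P450 panel screen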
Cytochrome P450 1A2 = target: T1, Cytochrome P450 1A2 (Homo sapiens, UniProt P05177);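 also: PubChem cytochrome P450 panel assay, CYP1A2 panel member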
T1 sequence (P05177 whole entry): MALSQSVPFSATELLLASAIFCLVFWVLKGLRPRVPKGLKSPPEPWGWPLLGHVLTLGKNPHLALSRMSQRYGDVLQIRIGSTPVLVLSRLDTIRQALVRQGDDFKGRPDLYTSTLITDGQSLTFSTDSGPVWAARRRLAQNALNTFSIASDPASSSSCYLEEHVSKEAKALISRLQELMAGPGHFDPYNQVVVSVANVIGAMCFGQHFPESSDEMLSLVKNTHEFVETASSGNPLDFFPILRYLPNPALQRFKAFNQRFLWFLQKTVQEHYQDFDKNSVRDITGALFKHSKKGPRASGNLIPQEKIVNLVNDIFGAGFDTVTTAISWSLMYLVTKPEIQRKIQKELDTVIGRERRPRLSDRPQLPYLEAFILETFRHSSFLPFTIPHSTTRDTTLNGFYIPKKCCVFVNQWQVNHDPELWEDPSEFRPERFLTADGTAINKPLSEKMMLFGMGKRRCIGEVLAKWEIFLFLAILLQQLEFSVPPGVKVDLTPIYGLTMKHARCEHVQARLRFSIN

Cytochrome P450 2C19 = Cytochrome P450 2C19 (Homo sapiens, UniProt P33261); assay: Cytochrome panel assay with activity outcomes. Panel member name: p450-cyp2c19 Compounds with AC50 equal or less than 10 uM are considered active; format: functional; settings: read-out: AC50
[1] = cytotoxicity toward NIH3T3 fibroblasts, dose response, counter-screen, cell-based, ATP luminescence, mouse fibroblasts (AID 2010); format: functional;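 also: cells exposed to compound for about 90 hours before reading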
[2] = inhibitors of intracellular T. cruzi replication, confirmation, NIH3T3 host cells, beta-gal luminescence (AID 2044); format: functional, cell-based;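 also: intracellular parasites grown in NIH/3T3 mouse fibroblasts as host cells; luminescent beta-galactosidase reporter signal from transgenic T. cruzi replicating inside host cells; inhibitors lower the luminescence signal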
Cytochrome P450 2C9 = Cytochrome P450 2C9 (Homo sapiens, UniProt P11712)
[3] = Luminescence Cell-Based Dose Retest to Confirm Inhibitors of Cancer Stem Cells. [Related pubchem assays (depositor defined):AID2717, AID2721]; format: functional; settings: Homo sapiens
[4] = test system: Streptococcus sp. 'group A'; assay: growth inhibition of control SK(-) GAS strain, dose response, counter-screen for streptokinase expression inhibitor project, luminescence, kanamycin, BacTiterGlo, confirmation (AID 1900); format: functional, organism-based
Streptococcus = assay: Group A Streptococcus viability loss, dose response, counter-screen for streptokinase expression inhibitor project, luminescence, BacTiterGlo (AID 1915); format: functional, organism-based;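 also: potency for reduction of bacterial viability or growth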

Chain of Cytochrome P450 3A4 (P08684 whole entry): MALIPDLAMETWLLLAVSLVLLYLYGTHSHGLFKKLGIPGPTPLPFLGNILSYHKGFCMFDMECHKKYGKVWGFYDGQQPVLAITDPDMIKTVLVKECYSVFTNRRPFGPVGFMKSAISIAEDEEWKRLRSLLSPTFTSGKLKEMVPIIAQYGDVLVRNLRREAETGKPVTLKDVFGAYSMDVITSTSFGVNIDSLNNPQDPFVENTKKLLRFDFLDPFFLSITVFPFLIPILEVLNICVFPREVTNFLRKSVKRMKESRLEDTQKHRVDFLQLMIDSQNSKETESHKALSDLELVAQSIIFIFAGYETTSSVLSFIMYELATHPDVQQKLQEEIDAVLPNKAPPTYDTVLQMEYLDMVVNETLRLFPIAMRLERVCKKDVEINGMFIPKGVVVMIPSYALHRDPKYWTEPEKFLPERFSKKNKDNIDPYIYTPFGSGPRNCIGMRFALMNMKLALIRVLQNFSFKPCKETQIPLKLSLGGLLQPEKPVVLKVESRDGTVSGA
Chain of Cytochrome P450 2C19 (P33261 whole entry): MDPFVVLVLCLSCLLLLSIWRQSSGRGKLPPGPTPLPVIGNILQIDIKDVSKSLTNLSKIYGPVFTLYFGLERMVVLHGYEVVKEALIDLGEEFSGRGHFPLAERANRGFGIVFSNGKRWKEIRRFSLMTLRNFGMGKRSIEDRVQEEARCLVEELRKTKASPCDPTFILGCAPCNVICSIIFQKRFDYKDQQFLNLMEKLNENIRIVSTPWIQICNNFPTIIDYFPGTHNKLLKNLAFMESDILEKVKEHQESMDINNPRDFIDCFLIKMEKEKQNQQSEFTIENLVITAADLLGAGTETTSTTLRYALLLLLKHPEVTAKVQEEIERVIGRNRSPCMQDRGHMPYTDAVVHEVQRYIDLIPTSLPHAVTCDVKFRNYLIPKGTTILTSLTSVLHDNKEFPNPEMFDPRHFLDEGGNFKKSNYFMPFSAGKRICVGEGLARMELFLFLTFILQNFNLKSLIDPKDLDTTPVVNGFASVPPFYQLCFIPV
Chain of Cytochrome P450 2C9 (P11712 whole entry): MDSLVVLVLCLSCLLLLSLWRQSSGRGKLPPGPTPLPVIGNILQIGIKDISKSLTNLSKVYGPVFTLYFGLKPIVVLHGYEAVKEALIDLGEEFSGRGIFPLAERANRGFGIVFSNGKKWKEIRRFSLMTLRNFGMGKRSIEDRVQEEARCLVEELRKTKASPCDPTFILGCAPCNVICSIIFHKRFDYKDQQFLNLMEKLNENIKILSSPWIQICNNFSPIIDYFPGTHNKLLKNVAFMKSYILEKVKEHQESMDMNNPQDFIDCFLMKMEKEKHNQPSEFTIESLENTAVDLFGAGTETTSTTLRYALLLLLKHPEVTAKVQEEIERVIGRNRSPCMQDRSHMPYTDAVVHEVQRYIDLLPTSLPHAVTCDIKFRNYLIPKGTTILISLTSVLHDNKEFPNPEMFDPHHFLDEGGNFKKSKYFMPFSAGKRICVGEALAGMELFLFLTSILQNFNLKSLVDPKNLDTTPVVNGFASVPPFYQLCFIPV

AC50 (Cytochrome P450 3A4): 25.1 µM (inconclusive)
Compound: CCOC(=O)c1c(NC(=O)Nc2ccccc2)sc(C)c1C

AC50 (Cytochrome P450 1A2): 0.501 µM (inconclusive)
Compound: CN(C)CCCN1c2ccccc2Sc2cnccc21

AC50 (Cytochrome P450 2C19): 2.24 µM (inconclusive)
AC50 (Cytochrome P450 3A4): 39.8 µM (inconclusive)
Compound: Cc1cc(C)n(C(=O)c2cc3c(s2)CCCC3)n1

AC50 (Cytochrome P450 1A2): 17.8 µM (inconclusive)
Compound: Cc1cc(C)c(S(=O)(=O)NCC2CCC(C(=O)NCc3ccc4c(c3)OCO4)CC2)c(C)c1 (configuration not stated)

AC50 (Cytochrome P450 2C19): 0.224 µM (inconclusive)
Compound: C=CCNc1nc(Cl)nc(Nc2ccc(OC)cc2)n1

AC50 (Cytochrome P450 3A4): 31.6 µM (inconclusive)
Compound: COc1ccccc1-c1nc(N2CCN(C)CC2)c2ccccc2n1

AC50 (Cytochrome P450 2C19): 3.16 µM (inconclusive)
AC50 (Cytochrome P450 2C9): 3.55 µM (inconclusive)
Compound: COC(=O)c1c(NC(=O)Cn2cc([N+](=O)[O-])cn2)sc2c1CCC2

AC50 (Cytochrome P450 2C19): 0.00794 µM (inconclusive)
Compound: COC(=O)[C@@]1(Cc2ccccc2)[C@H]2c3cc(C(=O)N4CCCC4)n(CCO)c3C[C@H]2CN1C(=O)c1ccccc1

AC50 (Cytochrome P450 3A4): 15.8 µM (inconclusive)
AC50 (Cytochrome P450 1A2): 0.398 µM (inconclusive)
Compound: O=C(CCN1CCc2ccccc2C1)Nc1ccc(F)cc1

AC50 (Cytochrome P450 2C9): 2 µM (inconclusive)
Compound: Cc1cccc(OC(=O)CN2C(=O)C3C4CCC(C4)C3C2=O)c1C (configuration not stated)

AC50 (Cytochrome P450 2C9): 15.8 µM (inconclusive)
Compound: CC1(C)CCCN(C(=O)N2c3ccccc3Sc3ccccc32)C1

AC50 (Cytochrome P450 2C19): 17.8 µM (inconclusive)
AC50 (Cytochrome P450 2C9): 1.12 µM (inconclusive)
Compound: CCOC(=O)c1[nH]c(C)c(C)c1C

AC50 (Cytochrome P450 3A4): 0.0501 µM (inconclusive)
Compound: COc1ccc(-c2nc3cnc(OC)nc3n(C3CC3)c2=O)cc1

AC50 (Cytochrome P450 3A4): 39.8 µM (inconclusive)
AC50 (Cytochrome P450 2C9): 2.24 µM (inconclusive)
Compound: Cc1nn(C(=O)c2ccco2)c(C)c1Sc1ccccc1

Second part, the compound before the results:

Compound: O=C(NCC1CCCC(CNC(=O)Nc2ccc(Cl)cn2)C1)Nc1ccc(Cl)cn1 (configuration not stated)
EC50 [1]: > 60 µM (not active)
EC50 [2]: 1.18 µM (active)

Compound: Cc1ccc2c(c1)-c1c(cnn1CC(=O)O)CO2
AC50 (Cytochrome P450 1A2): 0.794 µM (inconclusive)
AC50 (Cytochrome P450 2C9): 11.2 µM (inconclusive)

Compound: CCc1c(C2(O)CCCCC2)[nH]c2c(C(=O)OC)cc(Cl)cc12
AC50 [3]: 1.89 µM (active)
EC50 [4]: 2.62 µM (active)
EC50 (Streptococcus): 5.96 µM (active)

Compound: N[C@@H](Cn1oc(=O)[nH]c1=O)C(=O)O [QUISQUALATE]
AC50 (Cytochrome P450 3A4): 1 µM (inconclusive)
AC50 (Cytochrome P450 1A2): 39.8 µM (inconclusive)

Compound: CC(C)(C)NC[C@@H](O)COc1cccc2[nH]c(C#N)cc12
AC50 (Cytochrome P450 1A2): 31.6 µM (inconclusive)

Compound: COc1cc(OC)cc(-c2sc3ccc(OC)cc3c2C#CCCO)c1
AC50 [3]: 4 µM (active)

Compound: COc1cccc(Nc2nc(N)nc(CCl)n2)c1
EC50 [1]: 4.11 µM (active)
EC50 [2]: 1.7 µM (active)

Compound: CCCc1[nH]c2ccc(C#N)cc2c1CCC
AC50 [3]: 4.21 µM (active)

Compound: COc1cccc(Cn2c(=O)c(-c3ccccc3)nc3cnc(N4CCN(C)CC4)nc32)c1
AC50 (Cytochrome P450 3A4): 31.6 µM (inconclusive)

Compound: Cc1c(-c2cccc(Cl)c2)nc2ccccc2c1C(=O)OC/C(O)=C(\C#N)c1nc2ccccc2[nH]1
AC50 [3]: 1.75 µM (active)
EC50 [4]: 2.23 µM (active)
EC50 (Streptococcus): 2.6 µM (active)

Compound: CN1CCN(c2nc(-c3ccoc3)nc3ccccc23)CC1
AC50 (Cytochrome P450 3A4): 20 µM (inconclusive)

Compound: COC(=O)CSc1ccc(C#N)c(SCC(=O)OC)c1
AC50 (Cytochrome P450 2C9): 20 µM (inconclusive)

Compound: O=C(CCN1C(=O)C2C3C=CC(C3)C2C1=O)Nc1c(F)cccc1F (configuration not stated)
AC50 (Cytochrome P450 2C19): 39.8 µM (inconclusive)

Compound: CN(C)CCCN(C(=O)COc1ccc(Cl)cc1)c1nc2c(F)cccc2s1
EC50 [1]: > 60 µM (inconclusive)
EC50 [2]: 0.128 µM (active)

Compound: CCCCCCCCCCCCN1[C@@H](CC(C)=O)c2cc(F)ccc2S1(=O)=O
AC50 [3]: 5.3 µM (active)

Compound: O=C(c1ccc(C#CC2(O)CCCCC2)cc1)N1CCN(C(c2ccccc2)c2ccccc2)CC1
AC50 [3]: 0.482 µM (active)

Compound: Cc1cccc(-n2cc(CN(C)Cc3nccn3C)c(-c3cccc(F)c3)n2)c1
EC50 [1]: 11.8 µM (active)
AC50 [3]: 13.5 µM (active)
EC50 [2]: 1.79 µM (active)

Compound: COc1ccc(C(CCN)Cc2ccccc2)cc1 (configuration not stated)
EC50 [1]: > 30 µM (not active)

Compound: Cc1nonc1NCn1nnc2ccccc21
AC50 (Cytochrome P450 2C19): 14.1 µM (inconclusive)
AC50 (Cytochrome P450 1A2): 8.91 µM (inconclusive)
AC50 (Cytochrome P450 2C9): 5.01 µM (inconclusive)

Compound: CCn1c(C)nc2cc(C(=O)NNS(=O)(=O)c3ccccc3F)ccc21
AC50 (Cytochrome P450 2C9): 20 µM (inconclusive)
